Laboratory results from patent US20230357272A1, “OCTAHYDROPYRAZINODIAZANAPHTHYRIDINE DIONE COMPOUNDS” (MEDSHINE DISCOVERY INC., priority 2020, published 2023).

How the values were obtained:
NCI-H358 cells = assay: Anti-proliferation experiment of H358 cells (CellTiter-Glo); type: cell-based; conditions: Homo sapiens, 120 h, 5 days
Method: RPMI-1640 culture medium, penicillin/streptomycin antibiotics purchased from Wisent, and fetal bovine serum purchased from Biosera. CellTiter-Glo (chemiluminescence detection reagent for cell viability) reagent purchased from Promega. NCI-H358 cell line purchased from the Cell Bank of the Chinese Academy of Sciences. Nivo multi-label analyzer (PerkinElmer).
NCI-H358 cells were seeded in a white 96-well plate with 80 μL of cell suspension per well, which contained 4000 NCI-H358 cells. The cell plate was incubated overnight in a carbon dioxide incubator.
The compounds to be tested were diluted 3-fold with a row gun to the ninth concentration, that is, from 2 mM to 304 nM, and a double-duplication experiment was set up. 78 μL of culture medium was added to a middle plate, and then 2 μL of gradient diluted compound per well was transferred to the middle plate according to the corresponding position. After being thoroughly mixed, 20 μL per well was transferred to the cell plate. The concentration range of the compound transferred to the cell plate was 10 μM to 1.52 nM. The cell plate was placed in the carbon dioxide incubator for 5 days. Another cell plate was prepared, and the signal value was read as the maximum value (Max value in the equation below) on the day of administration to participate in data analysis. 25 μL of cell viability chemiluminescence detection reagent was added to each well of the cell plate, and incubated at room temperature for 10 minutes to stabilize the luminescence signal. A multi-label analyzer was used for reading.
25 μL of cell viability chemiluminescence detection reagent was added to each well of the cell plate, and incubated at room temperature for 10 minutes to stabilize the luminescence signal. A multi-label analyzer was used for reading.
Using the equation (Sample−Min)/(Max−Min)*100% to convert the raw data into inhibition rate, and the value of IC50 might be obtained by curve fitting with four parameters (obtained by “log (inhibitor) vs. response—Variable slope” mode in GraphPad Prism). Table 1 provides the inhibitory activity of the compounds of the present disclosure on the proliferation of NCI-H358 cells.

[1] = system: H358 human non-small cell lung cancer cell line; assay: Anti-tumor activity test on in vivo H358 xenograft tumor model; set-up: species or system Female Balb/c nude mice; conditions: for T/C / TGI: 28 days; for mean tumor volume: 28 days after administration
Description: Human non-small cell lung cancer H358 was used to investigate the tumor-inhibitory effect of the compound to be tested alone in an in vivo tumor model.
Female Balb/c nude mice were subcutaneously inoculated with the H358 human non-small cell lung cancer cell line, randomly grouped on the 6th day after inoculation according to tumor size and animal body weight, and administered as described below.
Vehicle control group: The administration was started in the afternoon of the grouping day, once a day, and the vehicle (10% DMSO/60% PEG400/30% deionized water) was intragastrically administered at a dose of 0.1 mL/10 g body weight for 28 consecutive days.
Administration group: The administration was started in the afternoon of the grouping day, once a day, and 3 groups were intragastrically administered with compound 1D (10% DMSO/60% PEG400/30% deionized water) at the doses of 1 mg/kg, 3 mg/kg and 10 mg/kg body weight, respectively, for 28 consecutive days.
During the experiment, the mice were weighed twice a week, and the tumor volume was measured (tumor volume was calculated according to the formula of length×width^2/2). The tumor inhibition rate TGI (%) was calculated according to the formula TGI (%)=[(1−mean tumor volume at the end of administration of a treatment group−mean tumor volume at the time of group administration of the treatment group)/(mean tumor volume at the end of treatment of vehicle control group−mean tumor volume at the time of group administration of vehicle control group)]×100%.
The relative tumor volume was calculated as RTV=TVn/TV1×100%
Where TV1 was the tumor volume on the day of group administration, and TVn was the tumor volume on the day of measurement.
Relative tumor proliferation rate (T/C %)=RTVt/RTVc×100%
Where RTVt was the mean relative tumor volume of the treatment group, and RTVc was the mean relative tumor volume of the vehicle control group.

[2] = 1 mg/kg intragastric once a day
[3] = 3 mg/kg intragastric once a day
[4] = 10 mg/kg intragastric once a day

`C=CC(=O)N1CCN2c3c(c(=O)n(-c4c(C)ccnc4C(C)C)c4c(=O)n(-c5c(N)c(Cl)cc(Cl)c5F)c(C(F)(F)F)cc34)OCC[C@H]2C1` [Compound 1D] gave an IC50 (NCI-H358 cells) of 0.917 nM, a T/C [1, 2] of 51.35% and a TGI [1, 2] of 58.78%. The mean tumor volume [1, 2] was 341.36 mm^3, the T/C [1, 3] was 27.59% and the TGI [1, 3] was 84.17%. The mean tumor volume [1, 3] was 199.4 mm^3, the T/C [1, 4] was 5.76% and the TGI [1, 4] was 113.19%. It also gave a mean tumor volume [1, 4] of 37.5 mm^3.
